Source: PMC10922478 (Environmental research, 2023)

Key:
[1] = Stable isotope tracing in mouse urine after i.p. limonene or limonene-d5; settings: after limonene / limonene-d5 66.8 mg/kg i.p.; overnight urine
[2] = format: in vivo; settings: human urine after limonene inhalation
[3] = ref Falk-Filipsson et al., 1993; cited from earlier work

Row | SMILES | Detection in mouse urine [1] | Observed Tmax ([2]; creatinine-normalized peak response) | Elimination t1/2 ([2]; pseudo one-compartment model) | Ka (first-order urinary generation rate constant) ([2]; pseudo one-compartment model) | Ke (first-order urinary elimination rate constant) ([2]; pseudo one-compartment model) | Half-life in blood (t1/2α) [3]
1 | C=C(C)C1CCC(C(=O)O)CC1 (stereo not drawn) [LM1, DHPA] | absent | 1 h | 1.01 ± 0.40 h | 0.93 ± 0.37 h⁻¹ | 0.68 ± 0.27 h⁻¹ | –
2 | C=C(C)[C@H]1CC=C(C)CC1 [Limonene] | – | – | – | – | – | ~ 3 min
